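The compound was tested at five concentrations on cells cultured in 96-well plates, with a 48-hour exposure period. Here, GI50 denotes the concentration required for 50% inhibition of growth.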 Calls of active or inactive are those of the source. No stated cut-off is given here; in the data, active = GI50 up to about 1.1 µM and inactive = higher.
What was measured:
Assay in all cases: NCI-60 cell line screen, 48 h
UACC-257 = test system: UACC-257
MDA-MB-231 = test system: MDA-MB-231
NCI-H522 = test system: NCI-H522
SF-539 = test system: SF-539
OVCAR-8 = test system: OVCAR-8
T47D = test system: T47D
HCT-116 = test system: HCT-116
CCRF-CEM = test system: CCRF-CEM
SNB-19 = test system: SNB-19
HCC 2998 = test system: HCC 2998
A549 = test system: A549
RPMI-8226 = test system: RPMI-8226
SR = test system: SR
MOLT-4 = test system: MOLT-4
HOP-62 = test system: HOP-62
SK-MEL-28 = test system: SK-MEL-28
NCI-H23 = test system: NCI-H23
OVCAR-5 = test system: OVCAR-5
SNB-75 = test system: SNB-75
M14 = test system: M14
K562 = test system: K562
DU-145 = test system: DU-145
OVCAR-4 = test system: OVCAR-4
SK-MEL-2 = test system: SK-MEL-2
ACHN = test system: ACHN
EKVX = test system: EKVX
A498 = test system: A498
SW-620 = test system: SW-620
CAKI-1 = test system: CAKI-1
MDA-MB-435 = test system: MDA-MB-435
SN12C = test system: SN12C
MCF7 = test system: MCF7
U-251 = test system: U-251
SF-295 = test system: SF-295
PC-3 = test system: PC-3
HCT-15 = test system: HCT-15
SF-268 = test system: SF-268
LOX IMVI = test system: LOX IMVI
TK-10 = test system: TK-10
HL-60 = test system: HL-60
BT-549 = test system: BT-549
NCI-H460 = test system: NCI-H460
OVCAR-3 = test system: OVCAR-3
Hs-578T = test system: Hs-578T
HOP-92 = test system: HOP-92
NCI-H226 = test system: NCI-H226
786-0 = test system: 786-0
HT-29 = test system: HT-29
COLO 205 = test system: COLO 205
IGROV-1 = test system: IGROV-1
MDA-N = test system: MDA-N
SK-OV-3 = test system: SK-OV-3
SK-MEL-5 = test system: SK-MEL-5
KM12 = test system: KM12
UACC-62 = test system: UACC-62
Malme-3M = test system: Malme-3M

O=C(c1ccccn1)c1nnn2ccccc12
GI50 (UACC-257): > 100 µM (inactive)
GI50 (MDA-MB-231): > 100 µM (inactive)
GI50 (NCI-H522): > 100 µM (inactive)
GI50 (SF-539): > 100 µM (inactive)
GI50 (OVCAR-8): > 100 µM (inactive)
GI50 (T47D): > 100 µM (inactive)
GI50 (HCT-116): > 100 µM (inactive)
GI50 (CCRF-CEM): > 100 µM (inactive)
GI50 (SNB-19): > 100 µM (inactive)
GI50 (HCC 2998): > 100 µM (inactive)
GI50 (A549): > 100 µM (inactive)
GI50 (RPMI-8226): > 100 µM (inactive)
GI50 (SR): > 100 µM (inactive)
GI50 (MOLT-4): > 100 µM (inactive)
GI50 (HOP-62): > 100 µM (inactive)
GI50 (SK-MEL-28): > 100 µM (inactive)
GI50 (NCI-H23): > 100 µM (inactive)
GI50 (OVCAR-5): > 100 µM (inactive)
GI50 (SNB-75): > 100 µM (inactive)
GI50 (M14): > 100 µM (inactive)
GI50 (K562): > 100 µM (inactive)
GI50 (DU-145): > 100 µM (inactive)
GI50 (OVCAR-4): > 100 µM (inactive)
GI50 (SK-MEL-2): > 100 µM (inactive)
GI50 (ACHN): > 100 µM (inactive)
GI50 (EKVX): > 100 µM (inactive)
GI50 (A498): > 100 µM (inactive)
GI50 (SW-620): > 100 µM (inactive)
GI50 (CAKI-1): > 100 µM (inactive)
GI50 (MDA-MB-435): > 100 µM (inactive)
GI50 (SN12C): > 100 µM (inactive)
GI50 (MCF7): > 100 µM (inactive)
GI50 (U-251): > 100 µM (inactive)
GI50 (SF-295): > 100 µM (inactive)
GI50 (PC-3): > 100 µM (inactive)
GI50 (HCT-15): > 100 µM
GI50 (SF-268): > 100 µM (inactive)
GI50 (LOX IMVI): > 100 µM (inactive)
GI50 (TK-10): > 100 µM (inactive)
GI50 (HL-60): > 100 µM (inactive)
GI50 (BT-549): > 100 µM (inactive)
GI50 (NCI-H460): > 100 µM (inactive)
GI50 (OVCAR-3): > 100 µM (inactive)
GI50 (Hs-578T): > 100 µM (inactive)
GI50 (HOP-92): > 100 µM (inactive)
GI50 (NCI-H226): > 100 µM (inactive)
GI50 (786-0): > 100 µM (inactive)
GI50 (HT-29): > 100 µM (inactive)
GI50 (COLO 205): > 100 µM (inactive)
GI50 (IGROV-1): > 100 µM (inactive)
GI50 (MDA-N): > 100 µM (inactive)
GI50 (SK-OV-3): > 100 µM (inactive)
GI50 (SK-MEL-5): > 100 µM (inactive)
GI50 (KM12): > 100 µM (inactive)
GI50 (UACC-62): > 100 µM (inactive)
GI50 (Malme-3M): > 100 µM (inactive)
